Laboratory results taken from publication PMC4954775 (Nature chemical biology, 2013).

Molecular target: T1, α-L-iduronidase (IDUA) (Homo sapiens, UniProt P35475)
T1 sequence (P35475 28-653): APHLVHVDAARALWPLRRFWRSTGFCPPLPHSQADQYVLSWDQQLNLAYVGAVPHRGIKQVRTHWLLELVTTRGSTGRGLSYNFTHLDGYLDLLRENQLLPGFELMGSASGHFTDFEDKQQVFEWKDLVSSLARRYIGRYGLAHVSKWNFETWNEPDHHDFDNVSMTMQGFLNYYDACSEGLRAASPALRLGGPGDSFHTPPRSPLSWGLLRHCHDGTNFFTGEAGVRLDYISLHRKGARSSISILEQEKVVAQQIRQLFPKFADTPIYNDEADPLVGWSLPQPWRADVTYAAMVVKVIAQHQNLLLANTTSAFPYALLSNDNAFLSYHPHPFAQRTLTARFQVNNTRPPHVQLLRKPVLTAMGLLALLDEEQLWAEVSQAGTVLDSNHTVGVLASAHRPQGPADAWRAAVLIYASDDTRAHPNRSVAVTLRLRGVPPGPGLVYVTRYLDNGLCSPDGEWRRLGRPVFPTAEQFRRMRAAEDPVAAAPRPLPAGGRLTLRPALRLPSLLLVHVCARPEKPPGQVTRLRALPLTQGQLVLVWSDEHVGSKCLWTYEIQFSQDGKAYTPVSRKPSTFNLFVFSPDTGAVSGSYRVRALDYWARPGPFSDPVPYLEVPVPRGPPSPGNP
Assay: X-ray crystal structure
Assay type: biochemical

## O=C(O)[C@@H]1NC[C@H](O)[C@@H](O)[C@@H]1O [IdoADNJ, [2R, 3R, 4R, 5S]-2-carboxy-3,4,5-trihydroxy-piperidine]
  IC50: ~3 mM
